Assay results from patent US12384789B2, “Compounds for treating Huntington's disease” (PTC Therapeutics, Inc., priority 2017, dated 2025).

tested on: Endogenous Huntingtin Protein; test: Endogenous Huntingtin Protein Assay (Meso Scale Discovery ELISA-based electrochemiluminescence); format: cell-based; conditions: MSD electrochemiluminescence, Table 1
How it was run: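 MSD electrochemiluminescence sandwich ELISA: MW1 (expanded polyQ) or MAB2166 capture antibody at 1 μg/mL, samples incubated overnight at 4° C. Detection with rabbit monoclonal #5656S then SULFO-TAG anti-rabbit antibody, each 0.25 μg/mL for 1 h at room temperature.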

| IC50 [nM] | SMILES |
| --- | --- |
| ≤ 100 | CCN1CCC(c2cc3c(F)cc(-c4cc(C)c5nn(C)cc5n4)cc3nn2)CC1 [Compound 164, 7-(2,7-dimethyl-2H-pyrazolo[4,3-b]pyridin-5-yl)-3-(1-ethylpiperidin-4-yl)-5-fluorocinnoline] |
| ≤ 100 | Cc1cn2nc(-c3cc(F)c4cc(C5CCNCC5)nnc4c3)cc(CO)c2n1 [Compound 107, {6-[5-fluoro-3-(piperidin-4-yl)cinnolin-7-yl]-2-methylimidazo[1,2-b]pyridazin-8-yl}methanol] |
| ≤ 100 | Cc1cc(-c2cc(F)c3nc(C4CCNCC4)ncc3c2)cc2cn(C)nc12 [Compound 34, 6-(2,7-dimethyl-2H-indazol-5-yl)-8-fluoro-2-(piperidin-4-yl)quinazoline] |
| ≤ 100 | Cc1cn2nc(-c3cc(F)c4cc(C5CCN(C)CC5)nnc4c3)cc(CO)c2n1 [Compound 180, {6-[5-fluoro-3-(1-methylpiperidin-4-yl)cinnolin-7-yl]-2-methylimidazo[1,2-b]pyridazin-8-yl}methanol] |
| ≤ 100 | Cc1cn2nc(-c3cc(F)c4cc(C5CCCNCC5)nnc4c3)cc(C)c2n1 (stereo not drawn) [Compound 129, 3-(azepan-4-yl)-7-(2,8-dimethylimidazo[1,2-b]pyridazin-6-yl)-5-fluorocinnoline] |
| ≤ 100 | CCc1cc(-c2cc(F)c3cc(C4CCNCC4)nnc3c2)nc2cn(C)nc12 [Compound 172, 7-(7-ethyl-2-methyl-2H-pyrazolo[4,3-b]pyridin-5-yl)-5-fluoro-3-(piperidin-4-yl)cinnoline] |
| 100 to 500 | Cc1cn2cc(-c3nnc4cc(C5CCNCC5)cc(F)c4n3)cc(F)c2n1 [Compound 41, 5-fluoro-3-(8-fluoro-2-methylimidazo[1,2-a]pyridin-6-yl)-7-(piperidin-4-yl)-1,2,4-benzotriazine] |
| ≤ 100 | CCN1CCC(c2cc(F)c3nc(-c4cc(F)c5nn(C)cc5c4)ccc3c2)CC1 [Compound 193, 6-(1-ethylpiperidin-4-yl)-8-fluoro-2-(7-fluoro-2-methyl-2H-indazol-5-yl)quinoline] |
| ≤ 100 | Cc1cn2cc(-c3cc(F)c4nc(C5CCNCC5)nnc4c3)cc2c(C)n1 [Compound 64, 7-(1,3-dimethylpyrrolo[1,2-a]pyrazin-7-yl)-5-fluoro-3-(piperidin-4-yl)-1,2,4-benzotriazine] |
| 100 to 500 | Cc1cn2cc(-c3cc(F)c4nc(C5CCNCC5)nnc4c3)cc(C)c2n1 [Compound 60, 7-(2,8-dimethylimidazo[1,2-a]pyridin-6-yl)-5-fluoro-3-(piperidin-4-yl)-1,2,4-benzotriazine] |
| 100 to 500 | Cc1cn2nc(-c3nnc4cc(C5CCNCC5)ccc4n3)cc(C)c2n1 [Compound 44, 3-(2,8-dimethylimidazo[1,2-b]pyridazin-6-yl)-7-(piperidin-4-yl)-1,2,4-benzotriazine] |
| 100 to 500 | Cc1cc(-c2ccc3cc(C4CCNCC4)ncc3c2)cc2cn(C)nc12 [Compound 30, 7-(2,7-dimethyl-2H-indazol-5-yl)-3-(piperidin-4-yl)isoquinoline] |
| 100 to 500 | Cc1cn2cc(-c3nnc4cc(C5CCNCC5)cc(F)c4n3)cc(C)c2n1 [Compound 40, 3-(2,8-dimethylimidazo[1,2-a]pyridin-6-yl)-5-fluoro-7-(piperidin-4-yl)-1,2,4-benzotriazine] |
| ≤ 100 | Cc1cn2cc(-c3cc(F)c4cc(C5CCNCC5)nnc4c3)cc(C)c2n1 [Compound 103, 7-(2,8-dimethylimidazo[1,2-a]pyridin-6-yl)-5-fluoro-3-(piperidin-4-yl)cinnoline] |
| 100 to 500 | Cc1cn2nc(-c3cc(F)c4cc(C5CCN(CC(F)F)CC5)nnc4c3)cc(C)c2n1 [Compound 98, 3-[1-(2,2-difluoroethyl)piperidin-4-yl]-7-(2,8-dimethylimidazo[1,2-b]pyridazin-6-yl)-5-fluorocinnoline] |
| 100 to 500 | Cc1cc(-c2cc3c(F)cc(C4=CCCNCC4)cc3nn2)cc2cn(C)nc12 [Compound 198, 3-(2,7-dimethyl-2H-indazol-5-yl)-5-fluoro-7-(2,3,6,7-tetrahydro-1H-azepin-4-yl)cinnoline] |
| 100 to 500 | Cc1cc(-c2ccc3nc(C4CCNCC4)cnc3c2)cc2cn(C)nc12 [Compound 31, 6-(2,7-dimethyl-2H-indazol-5-yl)-2-(piperidin-4-yl)quinoxaline] |

| IC50 [nM] | SMILES |
| --- | --- |
| ≤ 100 | Cc1cn2nc(-c3cc(F)c4cc(C5CCN(CCN(C)C)CC5)nnc4c3)cc(C)c2n1 [Compound 127, 2-{4-[7-(2,8-dimethylimidazo[1,2-b]pyridazin-6-yl)-5-fluorocinnolin-3-yl]piperidin-1-yl}-N,N-dimethylethan-1-amine] |
| ≤ 100 | CCN1CCC(c2cc(F)c3cc(-c4cc(F)c5nc(C)cn5c4)nnc3c2)CC1 [Compound 144, 7-(1-ethylpiperidin-4-yl)-5-fluoro-3-(8-fluoro-2-methylimidazo[1,2-a]pyridin-6-yl)cinnoline] |
| ≤ 100 | Cc1cn2nc(-c3cc(F)c4cc(C5CCN(CCO)CC5)nnc4c3)cc(CO)c2n1 [Compound 181, 2-(4-{5-fluoro-7-[8-(hydroxymethyl)-2-methylimidazo[1,2-b]pyridazin-6-yl]cinnolin-3-yl}piperidin-1-yl)ethan-1-ol] |
| ≤ 100 | Cc1cn2nc(-c3cc(F)c4cc(C5CCN(CCO)CC5)nnc4c3)cc(C)c2n1 [Compound 75, 2-{4-[7-(2,8-dimethylimidazo[1,2-b]pyridazin-6-yl)-5-fluorocinnolin-3-yl]piperidin-1-yl}ethanol] |
| ≤ 100 | Cc1cn2nc(-c3cc(F)c4cc(C5CCN(CCCn6cnc7ccccc76)CC5)nnc4c3)cc(C)c2n1 [Compound 145, 3-{1-[3-(1H-benzimidazol-1-yl)propyl]piperidin-4-yl}-7-(2,8-dimethylimidazo[1,2-b]pyridazin-6-yl)-5-fluorocinnoline] |
| ≤ 100 | Cc1cn2nc(-c3cc(F)c4cc(C5CCNCC5)nnc4c3)cc(C)c2n1 [Compound 74, 7-(2,8-dimethylimidazo[1,2-b]pyridazin-6-yl)-5-fluoro-3-(piperidin-4-yl)cinnoline] |
| 100 to 500 | Cc1nc2ccc(-c3cc(F)c4cc(C5CCNCC5)nnc4c3)cn2n1 [Compound 94, 5-fluoro-7-(2-methyl[1,2,4]triazolo[1,5-a]pyridin-6-yl)-3-(piperidin-4-yl)cinnoline] |
| ≤ 100 | CCN1CCC(c2nnc3cc(-c4cc(C)c5nc(C)cn5n4)cc(F)c3n2)CC1 [Compound 70, 7-(2,8-dimethylimidazo[1,2-b]pyridazin-6-yl)-3-(1-ethylpiperidin-4-yl)-5-fluoro-1,2,4-benzotriazine] |
| 100 to 500 | Cc1cn2nc(-c3cc(F)c4cc(C5CCNCC5)nnc4c3)cc(OCCCn3ccnc3)c2n1 [Compound 142, 5-fluoro-7-{8-[3-(1H-imidazol-1-yl)propoxy]-2-methylimidazo[1,2-b]pyridazin-6-yl}-3-(piperidin-4-yl)cinnoline] |
| ≤ 100 | Cc1cn2nc(-c3cc(F)c4cc(C5CCNCC5)nnc4c3)cc(Oc3ccccc3)c2n1 [Compound 195, 5-fluoro-7-(2-methyl-8-phenoxyimidazo[1,2-b]pyridazin-6-yl)-3-(piperidin-4-yl)cinnoline] |
| ≤ 100 | Cc1cc(-c2cc(F)c3nc(C4CCNCC4)nnc3c2)nc2cn(C)nc12 [Compound 66, 7-(2,7-dimethyl-2H-pyrazolo[4,3-b]pyridin-5-yl)-5-fluoro-3-(piperidin-4-yl)-1,2,4-benzotriazine] |
| 500 to 1000 | Cn1cc2c(F)c(-c3cc(F)c4cc(C5CCNCC5)nnc4c3)ccc2n1 [Compound 109, 5-fluoro-7-(4-fluoro-2-methyl-2H-indazol-5-yl)-3-(piperidin-4-yl)cinnoline] |
| 1000 to 3000 | Cc1cn2cc(-c3nnc4cc(C5CCNCC5)ccc4n3)cc2c(C)n1 [Compound 28, 3-(1,3-dimethylpyrrolo[1,2-a]pyrazin-7-yl)-7-(piperidin-4-yl)-1,2,4-benzotriazine] |
| ≤ 100 | Cc1cn2nc(-c3cc(F)c4cc(C5CCCNC5)nnc4c3)cc(C)c2n1 (stereo not drawn) [Compound 216, 7-(2,8-dimethylimidazo[1,2-b]pyridazin-6-yl)-5-fluoro-3-(piperidin-3-yl)cinnoline] |
| ≤ 100 | CCN1CCC(c2cc3c(F)cc(-c4cc(C)c5nc(C)oc5n4)cc3nn2)CC1 [Compound 152, 7-(2,7-dimethyl[1,3]oxazolo[5,4-b]pyridin-5-yl)-3-(1-ethylpiperidin-4-yl)-5-fluorocinnoline] |
| 1000 to 3000 | Cc1cc(C2CCNCC2)nc2ccc(-c3ccc4nn(C)cc4c3)cc12 [Compound 5, 4-methyl-6-(2-methyl-2H-indazol-5-yl)-2-(piperidin-4-yl)quinoline] |
| ≤ 100 | Cc1cn2nc(-c3cc(F)c4cc(C5CCN(CCCN(C)C)CC5)nnc4c3)cc(C)c2n1 [Compound 158, 3-{4-[7-(2,8-dimethylimidazo[1,2-b]pyridazin-6-yl)-5-fluorocinnolin-3-yl]piperidin-1-yl}-N,N-dimethylpropan-1-amine] |

| SMILES | IC50 [nM] |
| --- | --- |
| CCN1CC=C(c2cc(F)c3nc(-c4cc(F)c5nn(C)cc5c4)ncc3c2)CC1 [Compound 201, 6-(1-ethyl-1,2,3,6-tetrahydropyridin-4-yl)-8-fluoro-2-(7-fluoro-2-methyl-2H-indazol-5-yl)quinazoline] | ≤ 100 |
| CN(c1ccc2cc(-c3ccc4nn(C)cc4c3)ccc2n1)C1CC(C)(C)NC(C)(C)C1 [Compound 12, N-methyl-6-(2-methyl-2H-indazol-5-yl)-N-(2,2,6,6-tetramethylpiperidin-4-yl)quinolin-2-amine] | 500 to 1000 |
| Cc1cn2cc(-c3cc4c(F)cc(C5=CCNCC5)cc4nn3)cc(C)c2n1 [Compound 156, 3-(2,8-dimethylimidazo[1,2-a]pyridin-6-yl)-5-fluoro-7-(1,2,3,6-tetrahydropyridin-4-yl)cinnoline] | ≤ 100 |
| Cn1cc2cc(-c3cc4c(F)cc(C5=CCNCC5)cc4nn3)cc(C#N)c2n1 [Compound 175, 5-[5-fluoro-7-(1,2,3,6-tetrahydropyridin-4-yl)cinnolin-3-yl]-2-methyl-2H-indazole-7-carbonitrile] | ≤ 100 |
| Cn1nc2cc(-c3cc4c(F)cc(C5=CCNCC5)cc4nn3)cc(F)c2n1 [Compound 171, 5-fluoro-3-(7-fluoro-2-methyl-2H-benzotriazol-5-yl)-7-(1,2,3,6-tetrahydropyridin-4-yl)cinnoline] | ≤ 100 |
